Data on 15 compounds can be found in patent US20250154138A1, “Small Molecule IL-17A Modulators” (BeiGene, Ltd., priority 2022, published 2025).

In test [1] the target is human IL-17A / human IL-17RA (Homo sapiens (Human), UniProt Q16552). Briefly: Human IL-17A biochemical assay (HTRF, blocking of IL-17A binding to IL-17RA). As to conditions: 0.4 nM IL-17A, 0.3 nM IL-17RA, max compound concentration 10 uM. In short, it runs like this: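 Inhibition of IL-17A binding to IL-17RA is measured by HTRF using 0.4 nM IL-17A, 0.3 nM IL-17RA and a 3 h compound pre-incubation at room temperature, pH 7.5. IC50 values come from four-parameter logistic fitting.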

In test [2] the test system is IL-17-induced GROα secretion from HT-29 cells. Briefly: GROα release assay in human colorectal adenocarcinoma epithelial cell (HT-29, ELISA). The class given is cell-based. The conditions noted are these: Homo sapiens, HT-29, 48 h, 10 ng/mL IL-17A, highest concentration 10 μM, read-out: Cellular assay HT29 cell/CXCL1 IC50. How it is done:
The purpose of the assay is to test the ability of a compound to neutralize IL17A proteins. IL17 can stimulate human epithelial cells to secrete GROα. The ability of one compound of the invention to neutralize IL-17-induced GROα secretion from the human colorectal adenocarcinoma epithelia cell line HT-29 is tested in this assay.
HT-29 cells (human colorectal adenocarcinoma epithelia cell, ATCC) were stimulated with IL-17A (Novoprotein, #C774) in final concentration of 10 ng/mL. The resultant GROα response was measured using an ELISA kit from Invitrogen (#88-52122). HT-29 cells were cultured in complete medium (McCoy's 5A medium+10% FBS) and maintained in a tissue culture flask using standard techniques. On day 1, detached the cell by using TrypLE (Gibco, #12605036) and used the complete medium to neutralize. The cells were centrifuged at 11,00 rmp for 4 minutes. Re-suspended the cell pellet in complete medium and seeded 50,000 HT-29 cells into the 96-well assay plate (Corning, 3599) at 135 μL complete medium per well. The cells were incubated for overnight, at 37° C./5% CO2 to adherent the plate. On day 2, prepared a 4-fold serial dilution of the tested compound in DMSO. The highest concentration of the compound was 10 μM. Transferred 2 μL of the serial diluted compound from the serial dilution plate into the reagent plate which was contained 198 μL complete medium with 100 ng/mL IL-17A per well. The compounds were incubated with the IL-17A for 15 minutes. 15 μL mixtures from reagent plate were transferred into the cell assay plate. Incubated the plate at 37° C./5% CO2 for 48 hours. After the incubation, on day 4, GROα level were measured with GROα ELISA as the manufacturer's instructions. 50 μL supernatant was collected form the assay plate to ELISA plate. ELISA plate was read at 450 nm on a microplate reader and compared to a standard calibration curve.
Data were processed using GraphPad Prism. GROα concentration was calculated from the standard curve. IC50 was determined using the equation log concentration (inhibitor) against response and fitted to four parameters.

human IL-17A / human IL-17RA, sequence (Q16552 24-155): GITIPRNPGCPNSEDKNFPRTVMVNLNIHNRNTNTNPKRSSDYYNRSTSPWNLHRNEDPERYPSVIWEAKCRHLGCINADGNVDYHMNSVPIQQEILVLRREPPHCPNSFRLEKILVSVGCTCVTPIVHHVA

As to `Cn1nccc1C(=O)N[C@H](C(=O)Nc1ccc2c(c1)OC(CN1C[C@@H](C(F)(F)F)NC1=O)C2)C1CCC(F)(F)CC1` (stereo partly drawn) [Example 258, N-((1S)-1-(4,4-difluorocyclohexyl)-2-oxo-2-((2-(((S)-2-oxo-4-(trifluoromethyl)imidazolidin-1-yl)methyl)-2,3-dihydrobenzofuran-6-yl)amino)ethyl)-1-methyl-1H-pyrazole-5-carboxamide], the IC50 turned out to be 108 nM in test [1] and 209 nM in test [2].
As for `CC(C)[C@@H]1CN(CC2Cc3ccc(NC(=O)[C@@H](NC(=O)c4ccnn4C(C)C)C(C4CC4)C4CC4)cc3N2)C(=O)N1` (stereo partly drawn) [Example 286, N-((2S)-1,1-dicyclopropyl-3-((2-(((R)-4-isopropyl-2-oxoimidazolidin-1-yl)methyl)indolin-6-yl)amino)-3-oxopropan-2-yl)-1-isopropyl-1H-pyrazole-5-carboxamide], the IC50 is 144 nM in test [1] and 430 nM in test [2].
Take `CNC(=O)C1(N2C[C@@H](C(C)C)NC2=O)Cc2cc(NC(=O)[C@@H](NC(=O)c3ccnn3C)C3CCCCC3)cnc2C1` (stereo partly drawn) [Example 117, 3-((S)-2-cyclohexyl-2-(1-methyl-1H-pyrazole-5-carboxamido)acetamido)-6-((R)-4-isopropyl-2-oxoimidazolidin-1-yl)-N-methyl-6,7-dihydro-5H-cyclopenta[b]pyridine-6-carboxamide]: the IC50 in test [1] was 925 nM; in test [2], 1060 nM.
With `COCC1(N2CC(C)NC2=O)Cc2ccc(NC(=O)[C@@H](NC(=O)c3ccnn3C)C3CCCCC3)cc2C1` (stereo partly drawn) [Example 2, N-((1S)-1-cyclohexyl-2-((2-(methoxymethyl)-2-(4-methyl-2-oxoimidazolidin-1-yl)-2,3-dihydro-1H-inden-5-yl)amino)-2-oxoethyl)-1-methyl-1H-pyrazole-5-carboxamide], the IC50 in test [1] was 1100 nM; in test [2], 2560 nM.
Taken in the same sequence, the figures for `CNC(=O)C1(N2C[C@@H](C(C)C)NC2=O)Cc2ccc(NC(=O)C(NC(=O)c3ccnn3C)C3CCC(C(C)(C)C)CC3)cc2C1` (stereo partly drawn) [Example 118, N-(1-(4-(tert-butyl)cyclohexyl)-2-((2-((R)-4-isopropyl-2-oxoimidazolidin-1-yl)-2-(methylcarbamoyl)-2,3-dihydro-1H-inden-5-yl)amino)-2-oxoethyl)-1-methyl-1H-pyrazole-5-carboxamide] were 192 nM and 581 nM.
For the compound `Cc1nonc1C(=O)N[C@H](C(=O)Nc1ccc2c(c1)CC(c1ccc(F)cc1)(N1C[C@@H](C(C)C)NC1=O)C2)C(C1CC1)C1CC1` (stereo partly drawn) [Example 251, N-((2S)-1,1-dicyclopropyl-3-((2-(4-fluorophenyl)-2-((R)-4-isopropyl-2-oxoimidazolidin-1-yl)-2,3-dihydro-1H-inden-5-yl)amino)-3-oxopropan-2-yl)-4-methyl-1,2,5-oxadiazole-3-carboxamide], the IC50 in test [1] and in test [2] was 1510 nM in each case.
For `CNC(=O)C1(N2C[C@@H](C(C)C)NC2=O)Cc2ccc(NC(=O)[C@@H](NC(=O)c3cnn(C)c3)C3CCCCC3)cc2C1` (stereo partly drawn) [Example 61, N-((1S)-1-cyclohexyl-2-((2-((R)-4-isopropyl-2-oxoimidazolidin-1-yl)-2-(methylcarbamoyl)-2,3-dihydro-1H-inden-5-yl)amino)-2-oxoethyl)-1-methyl-1H-pyrazole-4-carboxamide], the IC50 in test [1] came to 857 nM; in test [2], 4960 nM.
With `CC1CN(C2(C(N)=O)Cc3ccc(NC(=O)[C@@H](NC(=O)c4ccnn4C)C4CCCCC4)cc3C2)C(=O)N1` (stereo partly drawn) [Example 15, N-((1S)-2-((2-carbamoyl-2-(4-methyl-2-oxoimidazolidin-1-yl)-2,3-dihydro-1H-inden-5-yl)amino)-1-cyclohexyl-2-oxoethyl)-1-methyl-1H-pyrazole-5-carboxamide], the IC50 worked out at 550 nM in test [1] and 1240 nM in test [2].
In the case of `CNC(=O)C1(N2C[C@@H](Cc3ccc(OC)cc3)NC2=O)Cc2ccc(NC(=O)[C@@H](NC(=O)c3ccnn3C)C3CCCCC3)cc2C1` (stereo partly drawn) [Example 56, N-((1S)-1-cyclohexyl-2-((2-((R)-4-(4-methoxybenzyl)-2-oxoimidazolidin-1-yl)-2-(methylcarbamoyl)-2,3-dihydro-1H-inden-5-yl)amino)-2-oxoethyl)-1-methyl-1H-pyrazole-5-carboxamide], the values for the IC50 in test [1] and in test [2] were 20 nM and 23.7 nM, respectively.
As to `CC1CN(C2(CO)Cc3ccc(NC(=O)[C@@H](NC(=O)c4ccnn4C)C4CCCCC4)cc3C2)C(=O)N1` (stereo partly drawn) [Example 22, N-((1S)-1-cyclohexyl-2-((2-(hydroxymethyl)-2-(4-methyl-2-oxoimidazolidin-1-yl)-2,3-dihydro-1H-inden-5-yl)amino)-2-oxoethyl)-1-methyl-1H-pyrazole-5-carboxamide], the IC50 in test [1] was 950 nM; in test [2], 7120 nM.
The like results for `Cc1nonc1C(=O)N[C@H](C(=O)Nc1ccc2c(c1)CC(C(=O)NC(C1CC1)C1CC1)(N1C[C@@H](C(C)C)NC1=O)C2)C(C1CC1)C1CC1` (stereo partly drawn) [Example 281, N-((2S)-1,1-dicyclopropyl-3-((2-((dicyclopropylmethyl)carbamoyl)-2-((R)-4-isopropyl-2-oxoimidazolidin-1-yl)-2,3-dihydro-1H-inden-5-yl)amino)-3-oxopropan-2-yl)-4-methyl-1,2,5-oxadiazole-3-carboxamide] were, in that order, 16.5 nM and 67.4 nM.
The like results for `CNC(=O)C1(N2C[C@@H](C(C)C)NC2=O)Cc2ccc(NC(=O)[C@@H](NC(=O)c3ccnn3C(C)C)C(C3CC3)C3CC3)cc2C1` (stereo partly drawn) [Example 91, N-((2S)-1,1-dicyclopropyl-3-((2-((R)-4-isopropyl-2-oxoimidazolidin-1-yl)-2-(methylcarbamoyl)-2,3-dihydro-1H-inden-5-yl)amino)-3-oxopropan-2-yl)-1-isopropyl-1H-pyrazole-5-carboxamide] were, in that order, 71 nM and 43 nM.
`CNC(=O)C1(N2CC(CC3CC3)NC2=O)Cc2ccc(NC(=O)[C@@H](NC(=O)c3ccnn3C)C3CCCCC3)cc2C1` (stereo partly drawn) [Example 65, N-((1S)-1-cyclohexyl-2-((2-(4-(cyclopropylmethyl)-2-oxoimidazolidin-1-yl)-2-(methylcarbamoyl)-2,3-dihydro-1H-inden-5-yl)amino)-2-oxoethyl)-1-methyl-1H-pyrazole-5-carboxamide]: the IC50 worked out at 713 nM in test [1] and 2030 nM in test [2].
Take `CNC(=O)C1(N2C[C@@H](C(C)C)NS2(=O)=O)Cc2ccc(NC(=O)[C@@H](NC(=O)c3ccnn3C)C3CCCCC3)cc2C1` (stereo partly drawn) [Example 55, N-((1S)-1-cyclohexyl-2-((2-((R)-4-isopropyl-1,1-dioxido-1,2,5-thiadiazolidin-2-yl)-2-(methylcarbamoyl)-2,3-dihydro-1H-inden-5-yl)amino)-2-oxoethyl)-1-methyl-1H-pyrazole-5-carboxamide]: the IC50 in test [1] came to 1050 nM; in test [2], 1820 nM.
The like results for `CC[C@@H]1CN(C2(C(=O)NC)Cc3cc4nc([C@@H](NC(=O)c5nonc5C)C5CCCCC5)[nH]c4cc3C2)C(=O)N1` [Example 32, N-((1S)-cyclohexyl(6-((R)-4-ethyl-2-oxoimidazolidin-1-yl)-6-(methylcarbamoyl)-1,5,6,7-tetrahydroindeno[5,6-d]imidazol-2-yl)methyl)-4-methyl-1,2,5-oxadiazole-3-carboxamide] were, in that order, 62 nM and 135 nM.
